Structures can show the parent of a compound that is named as a salt.
Assays:
[1] = system: Phosphorylated Ribosomal Protein S6 (RPS6) in THP-1 cells; test: THP-1 RPS6 ELISA Assay; type: cell-based; settings: Homo sapiens; serum starved THP-1 cells, 2 hours with compound, 10 nM MCP-1 for 15 minutes, Phospho-RPS6 ELISA; read-out: PI3Kγ_THP1_RPS6_ELISA IC50
Protocol: Example A. THP-1 RPS6 ELISA Assay
To measure the Phosphorylated Ribosomal Protein S6 (RPS6) in cell lysates, THP-1 cells (Human Acute Monocytic Leukemia) are purchased from ATCC (Manassas, Va.) and maintained in RPMI with 10% FBS (Gibco/Life Technologies, Carlsbad, Calif.). For the assay, THP-1 cells are serum starved overnight in RPMI, then plated in RPMI (2×10^5 cells/well in 90 μL) into 96-well flat-bottom tissue culture treated plates (Corning, Corning, N.Y.), in the presence or absence of a concentration range of test compounds. Covered plates are incubated for 2 hours at 37° C., 5% CO2 then treated with or without 10 nM MCP-1 (MYBioSource, San Diego, Calif.) for 15 minutes at 37° C., 5% CO2. Plates are centrifuged at 1600 RPM and supernatants are removed. Cells are lysed in Lysis Buffer (Cell Signaling, Danvers, Mass.) with Protease Inhibitor (Calbiochem/EMD, Germany), PMSF (Sigma, St Louis Mo.), HALTS (Thermo Fisher, Rockford, Ill.) for 30 min on wet ice. Cell lysates are frozen at −80° C. before testing. The lysates are tested in the Human/Mouse/Rat Phospho-RPS6 ELISA (R&D Systems, Inc. Minn, Minn.). The plate is measured using a microplate reader (SpectraMax M5—Molecular Devices, LLC Sunnyvale, Calif.) set to 450 nm with a wavelength correction of 540. IC50 determination is performed by fitting the curve of inhibitor percent inhibition versus the log of the inhibitor concentration using the GraphPad Prism 5.0 software.

[2] = molecular target: PI3Kγ (p110γ) Recombinant Human Protein (Homo sapiens (Human), UniProt P48736); test: PI3K-γ Scintillation Proximity Assay; type: biochemical; settings: 20 μM PIP2, 2 μM ATP, 13 nM PI3Kγ, 120 min, room temperature
Source text: Example B. PI3K-γ Scintillation Proximity Assay
(§1) [γ-^33P]ATP (10 mCi/mL) and Wheat Germ Agglutinin (WGA) YSi SPA Scintillation Beads was purchased from Perkin-Elmer (Waltham, Mass.). Lipid kinase substrate, D-myo-Phosphatidylinositol 4,5-bisphosphate (PtdIns(4,5)P2)D (+)-sn-1,2-di-O-octanoylglyceryl, 3-O-phospho linked (PIP2), CAS 204858-53-7, was purchased from Echelon Biosciences (Salt Lake City, Utah). PI3Kγ (p110γ) Recombinant Human Protein was purchased from Life technology (Grand island, NY), ATP, MgCl2, DTT, EDTA, MOPS and CHAPS were purchased from Sigma-Aldrich (St. Louis, Mo.).
(§2) The kinase reaction was conducted in polystyrene 384-well Greiner Bio-one white plate from Thermo Fisher Scientific in a final volume of 25 μL. Inhibitors were first diluted serially in DMSO and added to the plate wells before the addition of other reaction components. The final concentration of DMSO in the assay was 2%. The PI3Kγ assay was carried out at room temperature in 20 mM MOPS, pH 6.7, 10 mM MgCl2, 5 mM DTT and CHAPS 0.03%. Reactions were initiated by the addition of ATP, the final reaction mixture consisted of 20 μM PIP2, 2 μM ATP, 0.5 μCi [γ-^33P] ATP, 13 nM PI3Kγ. Reactions were incubated for 120 min and terminated by the addition of 40 μL SPA beads suspended in quench buffer: 163 mM potassium phosphate pH 7.8, 20% glycerol, 25 mM EDTA. The final concentration of SPA beads is 1.0 mg/mL. After the plate sealing, plates were shaken overnight at room temperature and centrifuged at 1500 rpm for 10 min, the radioactivity of the product was determined by scintillation counting on Topcount (Perkin-Elmer). IC50 determination was performed by fitting the curve of percent of the solvent control activity versus the log of the inhibitor concentration using the GraphPad Prism 6.0 software.

[3] = molecular target: PI3Kδ (p110δ/p85α) Recombinant Human Protein (Homo sapiens (Human), UniProt O00329); test: PI3Kδ Scintillation Proximity Assay; type: biochemical; settings: 20 μM PIP2, 2 μM ATP, 3.4 nM PI3Kδ, 120 min, room temperature
Source text: Example C. PI3Kδ Scintillation Proximity Assay
as §1, with “PI3Kδ (p110δ/p85α)” for “PI3Kγ (p110γ)”, “Eurofins (St Charles, Mo.).” for “Life technology (Grand island, NY),”
as §2, with “PI3Kδ” for “PI3Kγ”, “3.4” for “13”, “PI3Kδ.” for “PI3Kγ.”

PI3Kγ (p110γ) Recombinant Human Protein, sequence (P48736 whole entry): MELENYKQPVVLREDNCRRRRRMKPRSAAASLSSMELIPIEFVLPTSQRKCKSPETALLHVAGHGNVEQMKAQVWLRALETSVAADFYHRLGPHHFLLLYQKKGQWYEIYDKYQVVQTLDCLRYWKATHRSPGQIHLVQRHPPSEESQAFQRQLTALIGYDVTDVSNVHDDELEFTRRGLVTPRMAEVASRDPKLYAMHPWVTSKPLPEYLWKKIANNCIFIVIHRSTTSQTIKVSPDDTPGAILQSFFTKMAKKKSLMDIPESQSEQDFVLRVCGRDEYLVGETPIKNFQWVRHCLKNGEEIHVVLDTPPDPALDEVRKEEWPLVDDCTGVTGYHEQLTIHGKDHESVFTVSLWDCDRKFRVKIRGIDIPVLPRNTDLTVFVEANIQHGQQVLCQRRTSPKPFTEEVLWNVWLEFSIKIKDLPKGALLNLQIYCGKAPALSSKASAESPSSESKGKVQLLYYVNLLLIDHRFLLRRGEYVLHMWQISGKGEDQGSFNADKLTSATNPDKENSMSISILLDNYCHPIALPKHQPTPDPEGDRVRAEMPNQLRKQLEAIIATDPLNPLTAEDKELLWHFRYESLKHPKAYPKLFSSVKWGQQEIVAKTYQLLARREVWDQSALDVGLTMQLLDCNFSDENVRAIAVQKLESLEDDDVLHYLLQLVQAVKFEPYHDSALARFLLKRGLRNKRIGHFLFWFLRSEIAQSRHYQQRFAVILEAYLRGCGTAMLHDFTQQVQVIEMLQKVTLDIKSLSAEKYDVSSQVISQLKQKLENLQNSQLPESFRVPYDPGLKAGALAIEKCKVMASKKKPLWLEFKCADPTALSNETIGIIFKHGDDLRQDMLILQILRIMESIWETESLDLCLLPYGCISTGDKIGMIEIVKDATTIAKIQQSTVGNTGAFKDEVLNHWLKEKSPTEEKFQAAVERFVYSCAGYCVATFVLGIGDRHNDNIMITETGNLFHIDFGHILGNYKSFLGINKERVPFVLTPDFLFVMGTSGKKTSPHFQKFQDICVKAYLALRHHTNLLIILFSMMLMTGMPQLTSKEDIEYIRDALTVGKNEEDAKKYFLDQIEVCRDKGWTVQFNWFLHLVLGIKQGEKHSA
PI3Kδ (p110δ/p85α) Recombinant Human Protein, sequence (O00329 whole entry): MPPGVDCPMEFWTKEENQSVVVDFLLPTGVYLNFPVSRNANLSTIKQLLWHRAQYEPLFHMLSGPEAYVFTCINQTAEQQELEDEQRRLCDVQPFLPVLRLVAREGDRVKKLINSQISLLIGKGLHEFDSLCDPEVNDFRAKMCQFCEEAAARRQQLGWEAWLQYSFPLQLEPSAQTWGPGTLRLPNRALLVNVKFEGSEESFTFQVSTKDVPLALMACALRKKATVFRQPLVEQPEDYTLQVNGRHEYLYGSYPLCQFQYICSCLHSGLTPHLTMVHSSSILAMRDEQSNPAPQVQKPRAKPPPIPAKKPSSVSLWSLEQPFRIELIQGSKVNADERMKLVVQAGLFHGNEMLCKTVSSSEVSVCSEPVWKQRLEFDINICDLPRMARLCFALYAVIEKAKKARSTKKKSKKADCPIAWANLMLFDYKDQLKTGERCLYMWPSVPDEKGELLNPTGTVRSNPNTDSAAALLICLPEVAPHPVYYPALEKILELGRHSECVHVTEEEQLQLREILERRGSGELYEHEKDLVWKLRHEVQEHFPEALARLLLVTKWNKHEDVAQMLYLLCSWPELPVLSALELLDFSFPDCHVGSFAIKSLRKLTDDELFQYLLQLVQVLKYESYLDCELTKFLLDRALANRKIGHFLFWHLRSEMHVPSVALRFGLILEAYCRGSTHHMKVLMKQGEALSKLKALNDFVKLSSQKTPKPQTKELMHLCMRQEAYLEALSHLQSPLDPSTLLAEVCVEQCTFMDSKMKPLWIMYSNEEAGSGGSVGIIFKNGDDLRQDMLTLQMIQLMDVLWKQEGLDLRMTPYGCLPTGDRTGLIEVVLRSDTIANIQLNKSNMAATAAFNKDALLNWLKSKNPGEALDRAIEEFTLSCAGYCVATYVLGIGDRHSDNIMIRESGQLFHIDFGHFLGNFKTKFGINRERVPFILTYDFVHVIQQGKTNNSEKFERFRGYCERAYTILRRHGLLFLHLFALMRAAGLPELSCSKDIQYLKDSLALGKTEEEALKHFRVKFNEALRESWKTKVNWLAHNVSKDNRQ
PI3Kδ (p110δ/p85α) Recombinant Human Protein, sequence (P27986 whole entry partner): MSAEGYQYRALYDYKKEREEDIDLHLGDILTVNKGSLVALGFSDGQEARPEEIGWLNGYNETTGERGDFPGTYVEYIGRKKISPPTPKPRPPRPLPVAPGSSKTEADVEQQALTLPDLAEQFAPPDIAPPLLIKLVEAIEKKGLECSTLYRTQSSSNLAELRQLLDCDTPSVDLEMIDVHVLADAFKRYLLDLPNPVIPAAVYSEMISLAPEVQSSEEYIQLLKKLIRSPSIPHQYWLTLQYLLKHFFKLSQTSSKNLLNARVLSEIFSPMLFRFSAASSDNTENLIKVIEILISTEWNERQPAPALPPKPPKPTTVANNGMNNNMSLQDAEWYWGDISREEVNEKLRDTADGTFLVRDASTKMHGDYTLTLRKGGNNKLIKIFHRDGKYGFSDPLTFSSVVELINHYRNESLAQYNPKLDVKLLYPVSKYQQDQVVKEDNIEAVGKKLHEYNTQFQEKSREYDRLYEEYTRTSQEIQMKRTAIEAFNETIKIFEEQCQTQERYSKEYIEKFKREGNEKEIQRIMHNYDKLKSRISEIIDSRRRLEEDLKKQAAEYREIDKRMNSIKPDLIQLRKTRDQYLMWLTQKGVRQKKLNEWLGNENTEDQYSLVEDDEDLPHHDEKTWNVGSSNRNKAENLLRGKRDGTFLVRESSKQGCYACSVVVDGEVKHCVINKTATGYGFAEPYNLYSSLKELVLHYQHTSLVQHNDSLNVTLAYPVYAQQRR

SMILES: Cc1ccc(S(=O)(=O)NC23CCC(O)(CC2)C3)cc1-c1cnc(N)c(-n2cncn2)n1 [Example 26, 3-(5-Amino-6-(1H-1,2,4-triazol-1-yl)pyrazin-2-yl)-N-(4-hydroxybicyclo[2.2.1]heptan-1-yl)-4-methylbenzenesulfonamide trifluoroacetate salt]
- IC50 [1]: ≤ 100 nM
- IC50 [2]: ≤ 100 nM
- IC50 [3]: ≤ 100 nM

SMILES: Cc1ccc(S(=O)(=O)NC23CC(C#N)(C2)C3)cc1-c1cnc(N)c(-c2ncn(C)n2)n1 [Example 45, 3-(5-Amino-6-(1-methyl-1H-1,2,4-triazol-3-yl)pyrazin-2-yl)-N-(3-cyanobicyclo[1.1.1]pentan-1-yl)-4-methylbenzenesulfonamide Trifluoroacetate Salt]
- IC50 [1]: ≤ 500 nM
- IC50 [2]: ≤ 100 nM
- IC50 [3]: ≤ 500 nM

SMILES: Cc1ccc(S(=O)(=O)NC23CC(C#N)(C2)C3)cc1-c1cnc(N)c(-n2nccn2)n1 [Example 41, 3-(5-Amino-6-(2H-1,2,3-triazol-2-yl)pyrazin-2-yl)-N-(3-cyanobicyclo[1.1.1]pentan-1-yl)-4-methylbenzenesulfonamide Trifluoroacetate Salt]
- IC50 [1]: ≤ 100 nM
- IC50 [2]: ≤ 100 nM
- IC50 [3]: ≤ 100 nM

SMILES: [2H]C([2H])([2H])c1ccc(S(=O)(=O)NC23CC(CO)(C2)C3)cc1-c1cnc(N)c(-n2cncn2)n1 [Example 49, 3-(5-Amino-6-(1H-1,2,4-triazol-1-yl)pyrazin-2-yl)-N-(3-(hydroxymethyl)bicyclo[1.1.1]pentan-1-yl)-4-(methyl-d3)benzenesulfonamide Trifluoroacetate Salt]
- IC50 [1]: ≤ 500 nM
- IC50 [2]: ≤ 100 nM
- IC50 [3]: ≤ 100 nM

SMILES: [2H]C([2H])([2H])c1ccc(S(=O)(=O)NC23CC(CO)(C2)C3)cc1-c1cnc(N)c(-c2ccnc(SC)n2)n1 [Example 78, 3-(5-Amino-6-(2-(methylthio)pyrimidin-4-yl)pyrazin-2-yl)-N-(3-(hydroxymethyl)bicyclo[1.1.1]pentan-1-yl)-4-(methyl-d3)benzenesulfonamide]
- IC50 [1]: ≤ 100 nM
- IC50 [2]: ≤ 100 nM
- IC50 [3]: ≤ 100 nM

SMILES: Cc1ccc(S(=O)(=O)NC23CCC(CO)(C2)C3)cc1-c1cnc(N)c(-n2cncn2)n1 [Example 25, 3-(5-Amino-6-(1H-1,2,4-triazol-1-yl)pyrazin-2-yl)-N-(4-(hydroxymethyl)bicyclo[2.1.1]hexan-1-yl)-4-methylbenzenesulfonamide trifluoroacetate salt]
- IC50 [1]: ≤ 100 nM
- IC50 [2]: ≤ 100 nM
- IC50 [3]: ≤ 100 nM

SMILES: Cc1ccc(S(=O)(=O)NC23CCC(C#N)(C2)C3)cc1-c1cnc(N)c(-n2ccnn2)n1 [Example 44, 3-(5-Amino-6-(1H-1,2,3-triazol-1-yl)pyrazin-2-yl)-N-(4-cyanobicyclo[2.1.1]hexan-1-yl)-4-methylbenzenesulfonamide Trifluoroacetate Salt]
- IC50 [1]: ≤ 100 nM
- IC50 [2]: ≤ 100 nM
- IC50 [3]: ≤ 100 nM

SMILES: Cc1ncc(-c2nc(-c3cc(S(=O)(=O)NC45CCC(C#N)(C4)C5)ccc3C)cnc2N)s1 [Example 2, 3-(5-Amino-6-(2-methylthiazol-5-yl)pyrazin-2-yl)-N-(4-cyanobicyclo[2.1.1]hexan-1-yl)-4-methylbenzenesulfonamide trifluoroacetate salt]
- IC50 [1]: ≤ 100 nM
- IC50 [2]: ≤ 100 nM
- IC50 [3]: ≤ 100 nM

SMILES: Cc1ccc(S(=O)(=O)NC23CNC(C2)C3)cc1-c1cnc(N)c(-n2cccn2)n1 [Example 58, 3-(5-Amino-6-(1H-pyrazol-1-yl)pyrazin-2-yl)-N-(2-azabicyclo[2.1.1]hexan-4-yl)-4-methylbenzenesulfonamide trifluoroacetate salt]
- IC50 [1]: ≤ 1000 nM
- IC50 [2]: ≤ 100 nM
- IC50 [3]: ≤ 500 nM

SMILES: [2H]C([2H])([2H])c1ccc(S(=O)(=O)NC23CC(CO)(C2)C3)cc1-c1cnc(N)c(-c2ccncn2)n1 [Example 81, 3-(5-Amino-6-(pyrimidin-4-yl)pyrazin-2-yl)-N-(3-(hydroxymethyl)bicyclo[1.1.1]pentan-1-yl)-4-(methyl-d3)benzenesulfonamide trifluoroacetate salt]
- IC50 [1]: ≤ 500 nM
- IC50 [2]: ≤ 100 nM
- IC50 [3]: ≤ 100 nM

SMILES: [2H]C([2H])([2H])c1ccc(S(=O)(=O)NC23CCC(C#N)(C2)C3)cc1-c1cnc(N)c(-c2ncco2)n1 [Example 71, 3-(5-Amino-6-(oxazol-2-yl)pyrazin-2-yl)-N-(4-cyanobicyclo[2.1.1]hexan-1-yl)-4-(methyl-d3)benzenesulfonamide trifluoroacetate salt]
- IC50 [1]: ≤ 500 nM
- IC50 [2]: ≤ 100 nM
- IC50 [3]: ≤ 500 nM

SMILES: Cc1ccc(S(=O)(=O)NC23CCN(CC2)C3)cc1-c1cnc(N)c(-n2cccn2)n1 [Example 93, 3-(5-amino-6-(1H-pyrazol-1-yl)pyrazin-2-yl)-N-(1-azabicyclo[2.2.1]heptan-4-yl)-4-methylbenzenesulfonamide]
- IC50 [1]: ≤ 100 nM
- IC50 [2]: ≤ 100 nM
- IC50 [3]: ≤ 100 nM

SMILES: Cc1ccc(S(=O)(=O)NC23CC(C#N)(C2)C3)cc1-c1cnc(N)c(-c2cn(C)nc2C)n1 [Example 10, 3-(5-Amino-6-(1,3-dimethyl-1H-pyrazol-4-yl)pyrazin-2-yl)-N-(3-cyanobicyclo[1.1.1]pentan-1-yl)-4-methylbenzenesulfonamide Trifluoroacetate Salt]
- IC50 [1]: ≤ 500 nM
- IC50 [2]: ≤ 100 nM
- IC50 [3]: ≤ 100 nM

SMILES: Cc1ccc(S(=O)(=O)NC23CC(CO)(C2)C3)cc1-c1cnc(N)c(-c2cn(C)nc2C)n1 [Example 15, 3-(5-amino-6-(1,3-dimethyl-1H-pyrazol-4-yl)pyrazin-2-yl)-N-(3-(hydroxymethyl)bicyclo[1.1.1]pentan-1-yl)-4-methylbenzenesulfonamide trifluoroacetate salt]
- IC50 [1]: ≤ 500 nM
- IC50 [2]: ≤ 100 nM
- IC50 [3]: ≤ 500 nM

SMILES: [2H]C([2H])([2H])c1ccc(S(=O)(=O)NC23CCC(O)(C2)C3)cc1-c1cnc(N)c(-c2ccnc(SC)n2)n1 [Example 77, 3-(5-Amino-6-(2-(methylthio)pyrimidin-4-yl)pyrazin-2-yl)-N-(4-hydroxybicyclo[2.1.1]hexan-1-yl)-4-(methyl-d3)benzenesulfonamide]
- IC50 [1]: ≤ 100 nM
- IC50 [2]: ≤ 100 nM
- IC50 [3]: ≤ 100 nM

Reference: patent US11306079B2, “3-(5-amino-pyrazin-2-yl)-benzenesulfonamide derivatives and related compounds as PI3K-gamma kinase inhibitors” (Incyte Corporation, priority 2017, dated 2022)
